Experiment [1] relates to K562. The experiment can be described thus: Induction of apoptosis in human K562 cells assessed as increase in apoptotic cells under hypoxia condition relative to control. Format: functional.
The next experiment deals with KB. The experiment can be described thus: Antiproliferative activity against human KB cells assessed as inhibition of cell growth under hypoxia condition. In kind it is functional, cell-based.
The test system of experiment [2] is K562. The experiment can be described thus: Induction of apoptosis in human K562 cells assessed as increase in apoptotic cells under normoxia condition relative to control. In kind it is functional.
The target in experiment [3] is Vascular endothelial growth factor receptor 2 (Homo sapiens, UniProt P35968). Kind of experiment: Inhibition of VEGFR-2 (unknown origin).
Chain of Vascular endothelial growth factor receptor 2 (P35968 whole entry): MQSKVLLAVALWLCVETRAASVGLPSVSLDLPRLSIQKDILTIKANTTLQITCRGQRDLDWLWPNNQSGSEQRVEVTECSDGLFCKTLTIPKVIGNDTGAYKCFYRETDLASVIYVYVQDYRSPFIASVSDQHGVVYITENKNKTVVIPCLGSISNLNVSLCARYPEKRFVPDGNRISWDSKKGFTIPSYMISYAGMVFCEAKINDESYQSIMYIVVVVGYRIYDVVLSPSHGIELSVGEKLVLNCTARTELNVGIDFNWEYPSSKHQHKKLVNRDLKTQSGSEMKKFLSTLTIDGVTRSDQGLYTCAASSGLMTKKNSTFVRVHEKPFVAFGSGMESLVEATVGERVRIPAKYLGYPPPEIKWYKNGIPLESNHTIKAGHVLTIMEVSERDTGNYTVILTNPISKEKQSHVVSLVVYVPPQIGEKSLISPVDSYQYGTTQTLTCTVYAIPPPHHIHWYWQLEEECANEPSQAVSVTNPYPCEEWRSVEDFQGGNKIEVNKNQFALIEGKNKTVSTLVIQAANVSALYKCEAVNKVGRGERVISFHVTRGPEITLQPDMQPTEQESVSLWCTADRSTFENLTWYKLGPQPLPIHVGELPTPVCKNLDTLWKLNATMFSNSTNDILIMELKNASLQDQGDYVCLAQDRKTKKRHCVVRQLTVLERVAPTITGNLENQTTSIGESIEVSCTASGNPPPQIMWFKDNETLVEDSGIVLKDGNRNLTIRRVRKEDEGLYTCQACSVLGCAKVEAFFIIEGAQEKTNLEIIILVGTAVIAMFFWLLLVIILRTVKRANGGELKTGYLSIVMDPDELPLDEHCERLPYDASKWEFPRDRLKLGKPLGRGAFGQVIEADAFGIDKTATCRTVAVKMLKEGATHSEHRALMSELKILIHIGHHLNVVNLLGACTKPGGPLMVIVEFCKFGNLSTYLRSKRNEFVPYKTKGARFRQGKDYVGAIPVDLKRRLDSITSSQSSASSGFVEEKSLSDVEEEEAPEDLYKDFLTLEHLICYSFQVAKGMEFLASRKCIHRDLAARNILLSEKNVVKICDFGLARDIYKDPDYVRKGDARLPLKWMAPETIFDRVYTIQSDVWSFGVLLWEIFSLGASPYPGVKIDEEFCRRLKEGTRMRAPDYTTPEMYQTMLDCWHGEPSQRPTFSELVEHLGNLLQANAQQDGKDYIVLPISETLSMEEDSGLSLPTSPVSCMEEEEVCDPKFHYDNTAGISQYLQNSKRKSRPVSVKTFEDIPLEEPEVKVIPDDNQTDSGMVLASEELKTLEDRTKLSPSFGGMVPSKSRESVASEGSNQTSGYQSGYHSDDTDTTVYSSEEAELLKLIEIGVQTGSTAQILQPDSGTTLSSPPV
For experiment [4], the target named is Epidermal growth factor receptor (Homo sapiens, UniProt P00533). The experiment can be described thus: Inhibition of EGFR (unknown origin).
Chain of Epidermal growth factor receptor (P00533 whole entry): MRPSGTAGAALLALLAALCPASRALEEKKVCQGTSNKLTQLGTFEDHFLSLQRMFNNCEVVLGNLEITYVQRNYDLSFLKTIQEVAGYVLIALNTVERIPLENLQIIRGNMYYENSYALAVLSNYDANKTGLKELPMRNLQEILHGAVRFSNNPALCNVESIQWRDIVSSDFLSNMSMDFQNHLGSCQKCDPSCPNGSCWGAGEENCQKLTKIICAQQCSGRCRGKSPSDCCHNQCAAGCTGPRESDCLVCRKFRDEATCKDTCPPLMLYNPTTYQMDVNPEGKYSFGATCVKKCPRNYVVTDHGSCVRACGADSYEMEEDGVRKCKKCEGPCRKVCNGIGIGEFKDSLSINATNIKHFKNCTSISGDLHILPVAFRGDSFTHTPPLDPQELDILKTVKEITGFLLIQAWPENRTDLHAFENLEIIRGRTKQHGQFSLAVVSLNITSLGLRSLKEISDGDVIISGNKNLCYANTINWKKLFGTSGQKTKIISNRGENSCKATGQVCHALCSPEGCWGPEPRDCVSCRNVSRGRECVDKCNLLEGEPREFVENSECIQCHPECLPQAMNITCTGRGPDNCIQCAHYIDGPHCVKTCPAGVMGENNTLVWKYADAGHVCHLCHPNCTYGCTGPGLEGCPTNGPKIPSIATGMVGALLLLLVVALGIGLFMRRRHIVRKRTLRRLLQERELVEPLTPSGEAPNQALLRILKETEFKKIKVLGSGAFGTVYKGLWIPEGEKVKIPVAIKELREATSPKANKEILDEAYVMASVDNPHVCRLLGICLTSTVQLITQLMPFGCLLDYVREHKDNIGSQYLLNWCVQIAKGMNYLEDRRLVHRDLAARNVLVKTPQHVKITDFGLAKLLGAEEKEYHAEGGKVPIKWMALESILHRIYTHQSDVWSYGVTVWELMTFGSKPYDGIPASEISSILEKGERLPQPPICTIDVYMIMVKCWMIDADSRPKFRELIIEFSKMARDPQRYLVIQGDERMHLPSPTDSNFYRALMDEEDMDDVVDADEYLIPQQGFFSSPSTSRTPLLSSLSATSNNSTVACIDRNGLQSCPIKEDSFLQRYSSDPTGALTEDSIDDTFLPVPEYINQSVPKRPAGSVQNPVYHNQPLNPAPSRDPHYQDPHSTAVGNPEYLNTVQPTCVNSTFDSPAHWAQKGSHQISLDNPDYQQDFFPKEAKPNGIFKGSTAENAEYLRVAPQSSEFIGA
A short description of experiment [5]: Antiproliferative activity against human DiFi cells assessed as inhibition of cell growth by MTS assay.
Experiment [6] deals with HL-60. Kind of experiment: Antiproliferative activity against human HL-60 cells assessed as inhibition of cell growth under normoxia condition incubated for 72 hrs by MTT assay. In kind it is functional, cell-based. Particulars: HL-60, 72 h.
Experiment [7] in a line: Ratio of IC50 for antiproliferative activity against human HL-60 cells assessed as inhibition of cell growth under normoxia condition to IC50 for antiproliferative activity against human HL-60 cells assessed as inhibition of cell growth under hypoxia condition. In kind it is functional.
Experiment [8] in a line: Ratio of IC50 for antiproliferative activity against human Eca-109 cells assessed as inhibition of cell growth under normoxia condition to IC50 for antiproliferative activity against human Eca-109 cells assessed as inhibition of cell growth under hypoxia condition. In kind it is functional.
Experiment [9] concerns Bel-7402. The experiment can be described thus: Antiproliferative activity against human Bel-7402 cells assessed as inhibition of cell growth under normoxia condition incubated for 72 hrs by MTT assay. In kind it is functional, cell-based. Conditions: Bel-7402, 72 h.
Experiment [10] concerns MCF7. The experiment can be described thus: Antiproliferative activity against human MCF7 cells assessed as inhibition of cell growth under hypoxia condition incubated for 72 hrs by MTT assay. Format: functional, cell-based. Conditions: MCF7, 72 h. (Formazan colour is commonly taken as a measure of viable cells.)
A short description of experiment [11]: Ratio of IC50 for antiproliferative activity against human MCF7 cells assessed as inhibition of cell growth under normoxia condition to IC50 for antiproliferative activity against human MCF7 cells assessed as inhibition of cell growth under hypoxia condition. In kind it is functional.
Experiment [12] concerns ECa-109 cell line. Kind of experiment: Antiproliferative activity against human Eca-109 cells assessed as inhibition of cell growth under hypoxia condition incubated for 72 hrs by MTT assay. Conditions: ECa-109, 72 h. In kind it is functional, cell-based.
Experiment [13] in a line: Ratio of IC50 for antiproliferative activity against human PC-3 cells assessed as inhibition of cell growth under normoxia condition to IC50 for antiproliferative activity against human PC-3 cells assessed as inhibition of cell growth under hypoxia condition. In kind it is functional.
Experiment [14] concerns MCF7. Kind of experiment: Antiproliferative activity against human MCF7 cells assessed as inhibition of cell growth under normoxia condition incubated for 72 hrs by MTT assay. In kind it is functional, cell-based. Conditions: MCF7, 72 h.
Experiment [15] relates to ECa-109 cell line. The experiment can be described thus: Antiproliferative activity against human Eca-109 cells assessed as inhibition of cell growth under normoxia condition incubated for 72 hrs by MTT assay. Format: functional, cell-based. Particulars: ECa-109, 72 h.
The subject of experiment [16] is PC-3. The experiment can be described thus: Antiproliferative activity against human PC-3 cells assessed as inhibition of cell growth under hypoxia condition incubated for 72 hrs by MTT assay. In kind it is functional, cell-based. Conditions: PC-3, 72 h.
The subject of experiment [17] is PC-3. The experiment can be described thus: Antiproliferative activity against human PC-3 cells assessed as inhibition of cell growth under normoxia condition incubated for 72 hrs by MTT assay. Format: functional, cell-based. Particulars: PC-3, 72 h.
The test system of experiment [18] is Bel-7402. Kind of experiment: Antiproliferative activity against human Bel-7402 cells assessed as inhibition of cell growth under hypoxia condition incubated for 72 hrs by MTT assay. In kind it is functional, cell-based. Conditions: Bel-7402, 72 h.
Experiment [19] in a line: Ratio of IC50 for antiproliferative activity against human Bel-7402 cells assessed as inhibition of cell growth under normoxia condition to IC50 for antiproliferative activity against human Bel-7402 cells assessed as inhibition of cell growth under hypoxia condition. In kind it is functional.
In experiment [20] the test system is HL-60. Kind of experiment: Antiproliferative activity against human HL-60 cells assessed as inhibition of cell growth under hypoxia condition incubated for 72 hrs by MTT assay. Particulars: HL-60, 72 h. Format: functional, cell-based.
For a further experiment, the system named is HepG2. Kind of experiment: Antiproliferative activity against human HepG2 cells assessed as cell growth inhibition by MTT assay. Format: functional, cell-based.
For the next experiment, the system named is HCT-116. The experiment can be described thus: Antiproliferative activity against human HCT-116 cells assessed as inhibition of cell growth by MTT assay. In kind it is functional, cell-based.
Experiment [21] has as its system MCF7. The experiment can be described thus: Antiproliferative activity against human MCF7 cells assessed as inhibition of cell growth by MTT assay. Format: functional, cell-based.
In experiment [22] the target is T1, Interleukin-1 receptor-associated kinase 4 (Homo sapiens, UniProt Q9NWZ3).
T1 sequence (Q9NWZ3 whole entry): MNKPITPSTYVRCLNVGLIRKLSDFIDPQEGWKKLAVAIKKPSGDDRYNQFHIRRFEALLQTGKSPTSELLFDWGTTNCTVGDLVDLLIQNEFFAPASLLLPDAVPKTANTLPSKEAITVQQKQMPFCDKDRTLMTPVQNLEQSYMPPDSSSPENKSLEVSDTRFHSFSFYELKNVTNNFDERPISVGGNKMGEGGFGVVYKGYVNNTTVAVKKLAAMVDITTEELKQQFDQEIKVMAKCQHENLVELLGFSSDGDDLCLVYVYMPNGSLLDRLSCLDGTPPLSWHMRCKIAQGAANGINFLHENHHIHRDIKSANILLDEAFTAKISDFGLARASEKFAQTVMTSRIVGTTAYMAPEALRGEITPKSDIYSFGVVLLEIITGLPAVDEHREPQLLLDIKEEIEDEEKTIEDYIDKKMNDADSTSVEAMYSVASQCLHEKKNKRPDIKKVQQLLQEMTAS
Kind of experiment: Inhibition of human GST-tagged IRAK4 incubated for 30 mins in presence of ATP by fluorescent polarization assay.

For experiment [23], the target named is Glutaminase kidney isoform, mitochondrial (Homo sapiens, UniProt O94925). Kind of experiment: Inhibition of GLS in human PC-3 cells using glutamine as substrate by amplex red staining-based horseradish peroxidase/glutamate oxidase coupled assay. In kind it is cell-based.
Chain of Glutaminase kidney isoform, mitochondrial (O94925 whole entry, canonical isoform): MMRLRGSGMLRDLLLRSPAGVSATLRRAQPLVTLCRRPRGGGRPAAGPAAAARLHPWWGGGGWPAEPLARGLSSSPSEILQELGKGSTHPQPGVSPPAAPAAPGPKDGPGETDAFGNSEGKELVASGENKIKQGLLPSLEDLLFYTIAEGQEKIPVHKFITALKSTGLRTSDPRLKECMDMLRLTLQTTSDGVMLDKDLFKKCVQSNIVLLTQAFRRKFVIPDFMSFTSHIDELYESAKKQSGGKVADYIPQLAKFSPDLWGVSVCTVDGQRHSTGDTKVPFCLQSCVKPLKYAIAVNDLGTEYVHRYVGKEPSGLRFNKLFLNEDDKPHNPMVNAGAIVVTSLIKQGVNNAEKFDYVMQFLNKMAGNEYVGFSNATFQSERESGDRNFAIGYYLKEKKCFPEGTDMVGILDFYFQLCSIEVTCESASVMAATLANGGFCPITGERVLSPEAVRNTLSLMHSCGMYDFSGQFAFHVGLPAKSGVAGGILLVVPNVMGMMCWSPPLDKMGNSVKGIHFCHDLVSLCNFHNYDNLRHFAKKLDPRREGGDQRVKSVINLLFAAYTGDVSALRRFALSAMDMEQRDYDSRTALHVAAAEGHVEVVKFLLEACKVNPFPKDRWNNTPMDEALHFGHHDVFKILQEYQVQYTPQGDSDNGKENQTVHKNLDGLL
The next experiment has as its system SF-268. The experiment can be described thus: Antiproliferative activity against human SF-268 cells assessed as inhibition of cell growth at 100 uM relative to control. Format: functional.
Experiment [24] has as its system MCF7. The experiment can be described thus: Antiproliferative activity against human MCF7 cells assessed as inhibition of cell growth at 100 uM relative to control. In kind it is functional.

Values after ≈ are worked out from the molar mass of the structure shown. Bounds are passed on as bounds.

Turning to `COc1ccc(COCNc2n[n+]([O-])c3ccccc3[n+]2[O-])cc1`, the figures for the Activity with K562 [1] and in the experiment with K562 [2] were 33.07% and 14.13%, respectively. Also, the IC50 (as a rule, the midpoint of a concentration-inhibition curve) with KB stood at 3320 nM.
`[O-][n+]1nc(NCOCc2ccc(C(F)(F)F)cc2)[n+]([O-])c2ccccc21`: the Activity came to 54.24% with K562 [1] and 14.95% with K562 [2]. In addition, in the experiment on KB, the concentration for half-maximal inhibition (IC50) came to 4270 nM.
Take `Cc1ccc2c(Nc3ccc(F)c(Cl)c3)ncnn12`: the IC50 in experiment [3] is 3250 nM; in experiment [4], above 2000 nM; in experiment [5] it was 1600 nM.
The matching figures for `Fc1ccc(Nc2ncnn3cccc23)cc1Cl`: 118 nM, above 10000 nM and 1600 nM.
Taken in the same sequence, the figures for `Cc1cc2c(Nc3ccc(F)c(Cl)c3)ncnn2c1` were 151 nM, above 2000 nM and 1600 nM.
The matching figures for `Cc1ccn2ncnc(Nc3ccc(F)c(Cl)c3)c12`: 100 nM, above 10000 nM and 1600 nM.
For the molecule `[O-][n+]1nc(NC2CCCCC2)[n+]([O-])c2ccc(Cl)cc21`, the concentration for half-maximal inhibition (IC50) with HL-60 [6], in the experiment on Bel-7402 [9], in the experiment on MCF7 [10], in the experiment with ECa-109 cell line [12], with MCF7 [14] and with ECa-109 cell line [15] was 200 nM each time. The IC50 with PC-3 [16], in the experiment with PC-3 [17], with Bel-7402 [18] and in the experiment on HL-60 [20] was 200 nM each time. Besides, the “Ratio IC50” value in experiment [7] turned out to be 6.4; in experiment [8], 2.9; in [11], 2.7; in experiment [13], 2; in experiment [19], 1.
`O=c1[nH]n2c(=O)c(/C=C/c3cccs3)nnc2s1`: the IC50 with HepG2, in the experiment with HCT-116 and in the experiment on MCF7 [21] was 8.34 µg/mL (≈ 30 µM) throughout.
Turning to `O=C(O)CCc1nn2c(=O)c(/C=C/c3cccs3)nnc2s1`, the IC50 was determined as 12.1 µg/mL (≈ 36.3 µM) with HepG2, 8.34 µg/mL (≈ 24.9 µM) in the experiment with HCT-116 and 11.7 µg/mL (≈ 34.8 µM) with MCF7 [21].
In the case of `CCn1cc(NC(=O)c2ccc3cnc(NC4CCCCC4N)nn23)c(C(N)=O)n1` (stereo not drawn), in experiment [22], the IC50 turned out to be 1 nM.
Molecule `COC(C(=O)Cc1cnc(NC2CCN(c3cncnn3)C2)s1)c1cccc(OC(F)(F)F)c1` (stereo not drawn) displayed a concentration for half-maximal inhibition (IC50) in experiment [23] of 43 nM.
Consider `CC(=O)OC[C@H]1O[C@@H](n2nc(Cc3ccccc3)c(=S)n(N)c2=S)[C@H](OC(C)=O)[C@@H](OC(C)=O)[C@H]1OC(C)=O`, for which the inhibition (usually the share of the control response that was lost under treatment) at 100 µM was 38% in the experiment on SF-268 and 15% in the experiment with MCF7 [24].
